Here are results for three compounds from ChEMBL document CHEMBL4673351, “3α-Angeloyloxy-ent-kaur-16-en-19-oic Acid Isolated from Wedelia trilobata L. Alleviates Xylene-Induced Mouse Ear Edema and Inhibits NF-κB and MAPK Pathway in LPS-Stimulated Macrophages” (J Nat Prod, 2020).

The source made the active and inactive calls. The rule behind the calls is not given here.

In series [1] the test system is Mus musculus. Kind of series: Antiinflammatory activity in Kunming mouse assessed as reduction in xylene-induced vasodilation in ear at 5 mg/kg administered topically pretreated for 30 mins followed by xylene-treatment and measured after 30 mins by H and E staining based microscopic method. The series is classed as functional, organism-based. Conditions: time 60.0 min.

For series [2], the system named is Mus musculus. The series is described as follows: Antiinflammatory activity in Kunming mouse assessed as reduction in xylene-induced cell infiltration in ear at 5 mg/kg administered topically pretreated for 30 mins followed by xylene-treatment and measured after 30 mins by H and E staining based microscopic method. The series is classed as functional, organism-based. To be noted: time 60.0 min.

In series [3] the test system is Mus musculus. Kind of series: Antiinflammatory activity in Kunming mouse assessed as reduction in xylene-induced ear edema at 5 mg/kg administered topically pretreated for 30 mins followed by xylene-treatment and measured after 30 mins relative to control. Format: functional. Also noted: scale not given: the % may be the effect or the level left. To be noted: time 60 min, 1 h.

Series [4] can be described thus: (§1) Inhibition of NF-kappaB activation in mouse RaW264.7 cells assessed as reduction in LPS-induced NO production after 24 hrs by Griess reagent based assay. The series is classed as cell-based. Conditions: RAW264.7, 24 h. (Griess reagent forms a coloured azo dye with nitrite.)
The subject of series [5] is RAW264.7. Kind of series: Inhibition of NF-kappaB activation in mouse RaW264.7 cells assessed as reduction in LPS-induced TNFalpha mRNA expression after 24 hrs by qRT-PCR analysis. The series is classed as cell-based. (In general: In qPCR the cycle at which signal appears reflects the starting amount.)
In series [6] the test system is Mus musculus. Kind of series: Antiinflammatory activity in Kunming mouse assessed as reduction in xylene-induced ear edema at 25 mg/kg administered topically pretreated for 30 mins followed by xylene-treatment and measured after 30 mins relative to control. The series is classed as functional. Also noted: scale not given: the % may be the effect or the level left. To be noted: time 60 min, 1 h.

The test system of series [7] is RAW264.7. The series is described as follows: Inhibition of LPS-induced ROS generation in mouse RAW264.7 cells up to 40 uM after 24 hrs by DCFH-DA staining based fluorescence assay. Format: functional, cell-based. To be noted: dose microM <=40, time 24.0 hrs.
For series [8], the system named is RAW264.7. Kind of series: Inhibition of LPS-induced COX-2 mRNA expression in mouse RAW264.7 cells after 24 hrs by qRT-PCR analysis. Format: functional, cell-based.
Series [9] concerns RAW264.7. Kind of series: Inhibition of LPS-induced mitochondrial membrane potential loss in mouse RAW264.7 cells at 20 uM after 24 hrs by JC-1 staining based fluorescence microscopic method. Format: functional, cell-based.
For series [10], the system named is RAW264.7. The series is described as follows: Inhibition of NF-kappaB p65 nuclear translocation in LPS-induced mouse RaW264.7 cells at 20 uM after 24 hrs by DAPI staining based Immunofluorescence assay.
In series [11] the test system is RAW264.7. Kind of series: Cytotoxicity against mouse RAW264.7 cells assessed as reduction in cell viability up to 60 uM after 24 hrs in presence of LPS by MTT assay. The series is classed as cell-based. To be noted: raw264.7, 24 h.
For series [12], the system named is RAW264.7. The series is described as follows: Inhibition of LPS-induced iNOS protein expression in mouse RAW264.7 cells up to 30 uM after 24 hrs by Western blot analysis. To be noted: dose microM <=30, time 24.0 hrs. Format: functional, cell-based. A general note: In western blotting, separated proteins are transferred to a membrane and probed.
In series [13] the test system is RAW264.7. The series is described as follows: Inhibition of JNK phosphorylation in LPS-induced mouse RaW264.7 cells up to 30 uM after 24 hrs by Western blot analysis. Conditions: dose microM <=30, time 24.0 hrs.
Series [14] has as its system RAW264.7. The series is described as follows: Cytotoxicity against mouse RAW264.7 cells assessed as reduction in cell viability up to 80 uM after 24 hrs by MTT assay. Format: cell-based. To be noted: raw264.7, 24 h.
The subject of series [15] is Mus musculus. Kind of series: Antiinflammatory activity in Kunming mouse assessed as reduction in xylene-induced ear edema at 50 mg/kg administered topically pretreated for 30 mins followed by xylene-treatment and measured after 30 mins relative to control. The series is classed as functional. Also noted: scale not given: the % may be the effect or the level left. Conditions: time 60 min, 1 h.

The test system of series [16] is RAW264.7. Kind of series: Inhibition of NF-kappaB phosphorylation in LPS-induced mouse RaW264.7 cells up to 30 uM after 24 hrs by Western blot analysis. To be noted: dose microM <=30, time 24.0 hrs.
Series [17] addresses MAP kinase p38 (Mus musculus) (UniProt P47811+O08911+Q9WUI1+Q9Z1B7). The series is described as follows: Inhibition of p38 phosphorylation in LPS-induced mouse RaW264.7 cells up to 30 uM after 24 hrs by Western blot analysis. Conditions: dose microM <=30, time 24.0 hrs.
For series [18], the system named is RAW264.7. Kind of series: Inhibition of IKKalpha/beta phosphorylation in LPS-induced mouse RaW264.7 cells up to 30 uM after 24 hrs by Western blot analysis. To be noted: dose microM <=30, time 24.0 hrs.
Series [19] has as its system Mus musculus. The series is described as follows: Antiinflammatory activity in Kunming mouse assessed as reduction in xylene-induced vasodilation in ear at 50 mg/kg administered topically pretreated for 30 mins followed by xylene-treatment and measured after 30 mins by H and E staining based microscopic method. Format: functional, organism-based. To be noted: time 60.0 min.

Series [20] concerns RAW264.7. The series is described as follows: Inhibition of NF-kappaB activation in mouse RaW264.7 cells assessed as reduction in LPS-induced IL-6 protein expression up to 30 uM after 24 hrs by Western blot analysis. Format: cell-based. Conditions: dose microM <=30, time 24.0 hrs.
The subject of series [21] is RAW264.7. Described as §1. The series is classed as cell-based.
For series [22], the system named is RAW264.7. The series is described as follows: Inhibition of NF-kappaB activation in mouse RaW264.7 cells assessed as reduction in LPS-induced IL-6 mRNA expression after 24 hrs by qRT-PCR analysis. The series is classed as cell-based.
The subject of series [23] is RAW264.7. Kind of series: (§2) Inhibition of NF-kappaB activation in mouse RaW264.7 cells assessed as reduction in LPS-induced PGE2 production after 24 hrs by ELISA. The series is classed as cell-based.
Series [24] is described as follows: as §2. The series is classed as cell-based. To be noted: RAW264.7, 24 h.
Series [25] relates to RAW264.7. Kind of series: Inhibition of NF-kappaB in mouse RaW264.7 cells assessed as reduction in LPS-induced IkappaBalpha degradation up to 30 uM after 24 hrs by Western blot analysis. Conditions: dose microM <=30, time 24.0 hrs. The series is classed as cell-based.
The subject of series [26] is RAW264.7. Kind of series: Inhibition of NF-kappaB activation in mouse RaW264.7 cells assessed as reduction in LPS-induced TNF-alpha protein expression up to 30 uM after 24 hrs by Western blot analysis. The series is classed as cell-based. To be noted: dose microM <=30, time 24.0 hrs.
Series [27] has as its system Mus musculus. Kind of series: Antiinflammatory activity in Kunming mouse assessed as reduction in xylene-induced cell infiltration in ear at 50 mg/kg administered topically pretreated for 30 mins followed by xylene-treatment and measured after 30 mins by H and E staining based microscopic method. Format: functional, organism-based. To be noted: time 60.0 min.
The subject of series [28] is RAW264.7. The series is described as follows: Inhibition of ERK phosphorylation in LPS-induced mouse RaW264.7 cells up to 30 uM after 24 hrs by Western blot analysis. To be noted: dose microM <=30, time 24.0 hrs.
Series [29] has as its system RAW264.7. Kind of series: Inhibition of LPS-induced iNOS mRNA expression in mouse RAW264.7 cells after 24 hrs by qRT-PCR analysis. Format: functional, cell-based.
In series [30] the test system is RAW264.7. The series is described as follows: Inhibition of LPS-induced COX-2 protein expression in mouse RAW264.7 cells up to 30 uM after 24 hrs by Western blot analysis. Format: functional, cell-based. Conditions: dose microM <=30, time 24.0 hrs.

`C[C@]12CCC(=O)C=C1CC[C@@H]1[C@@H]2[C@@H](O)C[C@@]2(C)[C@H]1CC[C@]2(O)C(=O)CO` [HYDROCORTISONE]: the result in [1] and in series [2] was Active. Moreover, the Activity in series [3] came to 55.53%.

For `C=C1C[C@@]23CC[C@H]4[C@@](C)(CCC[C@@]4(C)C(=O)O)[C@@H]2CC[C@@H]1C3` [KAURENOIC ACID], the half-maximal inhibitory concentration (IC50) in series [4] turned out to be 50 µM.

On to `C=C1C[C@@]23CC[C@H]4[C@@](C)(CC[C@@H](OC(=O)/C(C)=C\C)[C@@]4(C)C(=O)O)[C@@H]2CC[C@@H]1C3`, for which the inhibition result in series [5], in [8], in [21], in [22], in series [23] and in series [29] was “Dose-dependent effect” in each case. The Activity in series [6] is 42.44%; in series [11], “Non-Toxic”; in series [14], “Non-Toxic”; in series [15] it was 51.57%. Also, the inhibition entry in series [7], in [9], in series [10], in series [12], in series [13] and in series [16] was “Active” each time. Also, the inhibition entry in series [17], in series [18], in [20], in series [25], in series [26] and in series [28] was “Active” each time. For the same compound, the inhibition entry in series [30] is “Active”. Also, the outcome in series [19] and in series [27] was Active. Moreover, the IC50 in series [4] and in [24] was 20.3 µM throughout.

As usually defined, the IC50 is the concentration that inhibits the measured activity by half.
